A short description of assay [1]: ADAM10 inhibitors, peptide cleavage, dose response, biochemical, QFRET (AID 743254).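 Note: ADAM10 enzyme with the DM2 quenched FRET peptide as substrate; EDANS fluorescence gain as the protease cuts the substrate; inhibitor potency against ADAM10 proteolytic activity.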
Assay [2] can be described thus: Luminescence Cell-Based Dose Response HTS to Identify Inhibitors of 5'UTR Stem-Loop Driven Prion Protein mRNA Translation in H4 Neuroglioblastoma Cells. [Related pubchem assays: 1827 (Project Summary), 1813 (Primary HTS)]. It is filed as functional.
The target of assay [3] is T1, Heat shock factor protein 1 (Mus musculus, UniProt P38532).
T1 sequence (P38532 whole entry): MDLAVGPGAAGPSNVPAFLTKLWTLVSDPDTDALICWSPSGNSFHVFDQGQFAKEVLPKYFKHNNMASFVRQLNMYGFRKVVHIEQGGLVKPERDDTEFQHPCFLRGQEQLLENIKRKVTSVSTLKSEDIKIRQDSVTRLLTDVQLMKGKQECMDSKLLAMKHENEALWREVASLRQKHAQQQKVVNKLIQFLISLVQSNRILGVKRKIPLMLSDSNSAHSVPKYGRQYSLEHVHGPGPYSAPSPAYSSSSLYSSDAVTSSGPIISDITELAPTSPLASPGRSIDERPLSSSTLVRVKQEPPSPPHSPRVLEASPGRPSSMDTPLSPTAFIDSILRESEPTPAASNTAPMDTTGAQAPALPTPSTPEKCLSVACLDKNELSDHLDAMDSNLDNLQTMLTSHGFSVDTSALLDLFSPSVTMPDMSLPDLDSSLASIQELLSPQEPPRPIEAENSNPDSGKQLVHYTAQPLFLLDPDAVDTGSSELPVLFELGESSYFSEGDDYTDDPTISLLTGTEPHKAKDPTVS
As to the kind of experiment: inhibition of MG132-induced HSE-luciferase signal, confirmation, cell-based, NIH3T3, luminescence, dose retest (AID 2382).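 Note: NIH3T3 fibroblasts with HSF1-driven luciferase reporter stressed by proteasome inhibitor MG132; luminescence from HSF1-driven luciferase expression after 8 hours of MG132 stress.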 Type of assay: functional.

Assay [4] in a line: HepG2 cell cytotoxicity, dose response, cytotoxicity control, plate reader, cherry-pick, antagonist series (AID 743416). It is filed as functional, cell-based.
A short description of assay [5]: LGR2 antagonists, dose response, cell-based, HEK293, CRE-luciferase reporter, cherry pick, set 2 (AID 743343).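 Note: transfected cells were stimulated with diluted bursicon conditioned medium after compound addition.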 It is filed as functional. For orientation: Reporter assays use an easily measured gene product as a stand-in for the process of interest.
A short description of assay [6]: HEK293 cell cytotoxicity, dose response, cytotoxicity control, plate reader, cherry-picked samples (AID 743446). Type of assay: functional, cell-based.
Assay [7] in a line: MC4R antagonists, dose response, counter-screen for LGR2 antagonist project, cell-based, plate reader, cherry pick (AID 743444).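 Note: transfected HEK 293 cells stimulated with alpha-MSH peptide; potency of inhibitors of the alpha-MSH evoked signal.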 It is filed as functional.
A short description of assay [8]: A549 cell cytotoxicity, dose response, cytotoxicity control, plate reader, cherry-pick, antagonist series (AID 743412). Type of assay: functional, cell-based.
Assay [9] can be described thus: inhibitors of SNCA 5'UTR-driven reporter translation, confirmation, H4 neuroglioma cells, luminescence (AID 1988). It is filed as functional, cell-based.
In assay [10] the target is Disintegrin and metalloproteinase domain-containing protein 17 (Homo sapiens, UniProt P78536). As to the kind of experiment: ADAM17 protease inhibitors, dose response, counter-screen for ADAM10 exosite inhibitor project, biochemical, quenched FRET substrate (AID 743253). (A counterscreen serves to expose hits that act by an unwanted route or on another target.)
Chain of Disintegrin and metalloproteinase domain-containing protein 17 (P78536 whole entry, the tested form may be a part): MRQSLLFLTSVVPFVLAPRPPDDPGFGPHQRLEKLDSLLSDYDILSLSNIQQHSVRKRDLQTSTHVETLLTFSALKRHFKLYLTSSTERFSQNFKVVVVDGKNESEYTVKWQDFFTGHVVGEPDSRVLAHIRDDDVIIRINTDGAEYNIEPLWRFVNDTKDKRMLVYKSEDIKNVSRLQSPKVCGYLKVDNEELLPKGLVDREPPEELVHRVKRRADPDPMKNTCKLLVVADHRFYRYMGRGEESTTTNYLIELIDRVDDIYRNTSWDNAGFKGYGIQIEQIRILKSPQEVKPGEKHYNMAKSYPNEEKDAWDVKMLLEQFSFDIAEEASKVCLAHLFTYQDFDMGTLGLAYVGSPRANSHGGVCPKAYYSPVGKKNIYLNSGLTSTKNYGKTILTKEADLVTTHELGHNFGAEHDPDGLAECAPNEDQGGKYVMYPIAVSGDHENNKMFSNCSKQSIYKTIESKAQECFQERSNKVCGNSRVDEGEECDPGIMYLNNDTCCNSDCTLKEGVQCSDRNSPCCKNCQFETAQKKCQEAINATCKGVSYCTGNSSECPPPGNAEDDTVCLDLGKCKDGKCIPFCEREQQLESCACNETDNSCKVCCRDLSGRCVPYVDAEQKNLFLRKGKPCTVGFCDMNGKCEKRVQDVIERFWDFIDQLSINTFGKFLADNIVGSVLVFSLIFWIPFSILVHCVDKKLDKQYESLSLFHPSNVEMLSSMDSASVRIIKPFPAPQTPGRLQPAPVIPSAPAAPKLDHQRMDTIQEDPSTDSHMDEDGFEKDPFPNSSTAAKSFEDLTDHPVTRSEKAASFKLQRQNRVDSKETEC
Assay [11] is described as follows: off-target signal loss in HeLa-CEM21 co-culture – HeLa F-luc CTL cells, cherry-picked, counter-screen for HIV-1 Env fusion inhibitor project, dose response (AID 652040).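 Note: potency for signal decrease marking cytotoxic or nonspecific inhibition.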 It is filed as functional, cell-based.
Another assay concerns HEK293. The assay can be described thus: inhibitors of LMP1-driven NF-kB reporter, dose response, cell-based, HEK293, luciferase, cherry-pick (AID 588343). It is filed as functional. The following applies: Homo sapiens.
Assay [12] can be described thus: inhibitors of HIV Env-driven cell fusion, dose response, cherry-pick (AID 652057). It is filed as functional, cell-based.
Assay [13] can be described thus: CEM21 lymphoblast cell cytotoxicity, dose response, cytotoxicity control for viral fusion inhibitor project, CellTiter-Glo luminescence, cherry-picked (AID 652042).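 Note: potency for signal decrease meaning cytotoxicity.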 It is filed as functional, cell-based. Background: In ATP-based viability assays light output follows the ATP content of the culture.
The nature of assay [14]: ZM109 Env clade C HIV-1 fusion inhibitors, dose response, HeLa effector, CEM target cells, luciferase, cherry-pick (AID 652058). Type of assay: functional, cell-based.
Assay [15] in a line: non-specific cell cytotoxicity, dose response, cytotoxicity control for PAX8 inhibitor project, plate reader, dry powder samples (AID 743021). It is filed as functional, cell-based.
For the next assay, the target named is Paired box protein Pax-8 (Homo sapiens, UniProt Q06710). As to the kind of experiment: inhibitors of PAX8-driven TPO luciferase reporter, dose response, RMG-I cells, cherry-pick (AID 687027).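 Note: luciferase reporter driven by Pax8 target thyroperoxidase promoter measured by SteadyGlo luminescence.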 It is filed as functional, cell-based.
Chain of Paired box protein Pax-8 (Q06710 whole entry): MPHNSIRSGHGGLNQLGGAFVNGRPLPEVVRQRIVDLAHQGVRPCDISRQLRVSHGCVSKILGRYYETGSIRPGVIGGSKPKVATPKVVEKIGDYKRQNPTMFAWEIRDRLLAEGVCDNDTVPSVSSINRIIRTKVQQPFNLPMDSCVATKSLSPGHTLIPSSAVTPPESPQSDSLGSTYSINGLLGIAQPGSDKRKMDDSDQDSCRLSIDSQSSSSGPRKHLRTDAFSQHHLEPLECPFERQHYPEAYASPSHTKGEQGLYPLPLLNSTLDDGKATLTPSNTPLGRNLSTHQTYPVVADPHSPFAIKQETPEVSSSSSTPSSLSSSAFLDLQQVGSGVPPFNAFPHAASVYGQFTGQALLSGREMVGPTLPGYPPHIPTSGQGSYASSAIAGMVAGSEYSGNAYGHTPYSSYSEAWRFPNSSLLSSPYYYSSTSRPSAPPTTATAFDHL
Assay [16] concerns the target T2, Corticotropin-releasing factor receptor 2/Corticotropin-releasing factor-binding protein (Homo sapiens, UniProt P24387+Q13324).
T2 sequence (Q13324 whole entry): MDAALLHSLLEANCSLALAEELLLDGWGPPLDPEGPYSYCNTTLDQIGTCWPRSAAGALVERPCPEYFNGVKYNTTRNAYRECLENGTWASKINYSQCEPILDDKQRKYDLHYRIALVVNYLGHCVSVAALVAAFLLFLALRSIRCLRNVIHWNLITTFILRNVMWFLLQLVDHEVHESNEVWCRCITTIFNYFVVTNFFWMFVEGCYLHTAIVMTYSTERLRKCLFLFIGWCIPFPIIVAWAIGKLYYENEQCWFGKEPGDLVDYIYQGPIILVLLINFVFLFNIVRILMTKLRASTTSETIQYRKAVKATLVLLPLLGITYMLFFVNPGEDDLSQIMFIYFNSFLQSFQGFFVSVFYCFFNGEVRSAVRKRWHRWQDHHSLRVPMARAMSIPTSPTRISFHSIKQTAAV
T2 sequence (P24387 whole entry): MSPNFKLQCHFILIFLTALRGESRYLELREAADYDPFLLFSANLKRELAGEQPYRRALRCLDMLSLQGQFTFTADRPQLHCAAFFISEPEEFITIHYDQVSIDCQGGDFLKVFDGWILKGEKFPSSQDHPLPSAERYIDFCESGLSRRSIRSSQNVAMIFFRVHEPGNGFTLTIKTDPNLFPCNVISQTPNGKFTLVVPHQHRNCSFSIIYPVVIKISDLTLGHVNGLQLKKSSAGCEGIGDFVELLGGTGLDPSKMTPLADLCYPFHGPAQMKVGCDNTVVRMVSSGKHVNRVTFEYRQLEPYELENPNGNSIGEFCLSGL
The assay can be described thus: activators of CRF receptor 2 with binding protein – uHTS hits, confirmation (AID 602473). It is filed as functional. Conditions: read-out: EC50_Mean.

Assay [17] in a line: inhibitors of clade B AD8 Env fusion, dose response, cell-based, cherry-pick (AID 652062).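 Note: luciferase signal from cell-cell fusion driven by HIV-1 clade B AD8 Env; potency is for inhibitors of fusion seen as a drop in luminescence.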 It is filed as functional.
Assay [18] in a line: Late stage counterscreen for inhibitors of Trypanosoma brucei methionyl tRNA synthetase (MetRS): Luminescence-based cell-based high throughput dose response assay to identify compounds that are cytotoxic to Jurkat human T lymphocyte cells. Type of assay: functional.
The target in assay [19] is T3, DNA repair protein RAD52 homolog (Homo sapiens, UniProt P43351).
T3 sequence (P43351 whole entry): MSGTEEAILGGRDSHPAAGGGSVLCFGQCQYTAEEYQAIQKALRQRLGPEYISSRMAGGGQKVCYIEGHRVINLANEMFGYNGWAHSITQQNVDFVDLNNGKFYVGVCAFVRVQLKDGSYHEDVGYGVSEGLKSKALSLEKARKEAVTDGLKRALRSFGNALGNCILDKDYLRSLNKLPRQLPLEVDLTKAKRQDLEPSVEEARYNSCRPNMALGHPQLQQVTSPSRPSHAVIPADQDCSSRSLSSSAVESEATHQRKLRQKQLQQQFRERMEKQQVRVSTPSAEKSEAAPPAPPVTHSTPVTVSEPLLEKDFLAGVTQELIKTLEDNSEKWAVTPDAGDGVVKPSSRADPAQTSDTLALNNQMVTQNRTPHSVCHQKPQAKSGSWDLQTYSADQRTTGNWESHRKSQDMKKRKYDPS
Type of assay: functional, biochemical.

Assay [20] in a line: HEK293T cytotoxicity, dose response, cytotoxicity control for miR-122 modulator project, cell-based, inhibitor set, cherry-pick, set 2 (AID 720697). Type of assay: functional.
Assay [21] in a line: HEK293T cytotoxicity, dose response, cytotoxicity control for miR-122 modulator project, cell-based, activator set, cherry-pick (AID 720690).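 Note: HEK293T human cells scored for general mammalian cytotoxicity.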 Type of assay: functional.
Assay [22] is described as follows: miR-122 activators in hepatoma reporter cells, dose response, cell-based, Huh7 psiCHECK-miR122, Renilla luciferase, cherry-picked (AID 651956).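 Note: huh7 hepatoma cells stably carrying a psiCHECK-2 miR-122 sensor plasmid; renilla luciferase signal reporting endogenous miR-122 activity after 48 h compound exposure.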 It is filed as functional.
Assay [23] deals with T4, DNA repair and recombination protein RAD54-like (Homo sapiens, UniProt Q92698).
T4 sequence (Q92698 whole entry): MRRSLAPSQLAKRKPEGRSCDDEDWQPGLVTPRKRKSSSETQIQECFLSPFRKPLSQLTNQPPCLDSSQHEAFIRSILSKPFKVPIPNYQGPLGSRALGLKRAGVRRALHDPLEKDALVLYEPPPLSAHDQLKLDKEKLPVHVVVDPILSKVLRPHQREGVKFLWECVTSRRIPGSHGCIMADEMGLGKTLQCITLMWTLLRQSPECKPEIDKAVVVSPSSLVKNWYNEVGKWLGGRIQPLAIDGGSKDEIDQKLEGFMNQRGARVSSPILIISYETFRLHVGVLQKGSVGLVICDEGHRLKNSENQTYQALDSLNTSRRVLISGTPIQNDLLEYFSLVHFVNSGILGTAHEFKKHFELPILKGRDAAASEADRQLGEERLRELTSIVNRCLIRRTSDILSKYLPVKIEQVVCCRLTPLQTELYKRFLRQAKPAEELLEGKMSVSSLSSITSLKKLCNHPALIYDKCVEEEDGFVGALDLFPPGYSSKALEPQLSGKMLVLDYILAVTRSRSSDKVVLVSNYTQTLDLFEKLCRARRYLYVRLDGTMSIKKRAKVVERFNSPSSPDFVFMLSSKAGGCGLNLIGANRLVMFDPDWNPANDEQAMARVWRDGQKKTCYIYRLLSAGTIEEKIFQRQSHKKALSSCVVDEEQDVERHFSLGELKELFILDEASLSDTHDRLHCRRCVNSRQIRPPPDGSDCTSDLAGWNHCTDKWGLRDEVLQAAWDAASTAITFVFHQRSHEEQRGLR
The assay can be described thus: inhibitors of human RAD54 branch migration, confirmation, biochemical, fluorescence, cherry-picked samples, dose series (AID 651657). It is filed as functional.

Molecules are shown by their SMILES. Activity calls are given as the source filed them. Bounds are passed on as bounds.

By IC50 is commonly meant the concentration that inhibits the measured activity by half. For orientation: AC50 means the concentration at which the activity in the assay is half-maximal.

As to `Cc1ccc(C(S)=NCS(=O)(=O)c2ccc(C)cc2)cc1`, the concentration for half-maximal inhibition (IC50) in [1] was 5.2 µM (active).

For the molecule `Cc1ccc(-c2nc(-c3ccccc3)no2)c(Cl)c1`, the EC50 was 8.33 µM (active) in assay [2], < 0.16 µM (active) in assay [3] and 9.82 µM (inconclusive) in assay [9]. For the same molecule, the AC50 was > 52 µM (inactive) in [4]; 0.842 µM (active) in assay [5]; 39.7 µM (active) in assay [6]; 1.26 µM (active) in [7]; > 52 µM (inactive) in [8].

As to `CC(C)(C)c1ccc(-c2nnc(SCC(=O)Nc3ccc(S(=O)(=O)Nc4nccs4)cc3)n2-c2ccc(Cl)cc2)cc1`, the IC50 in [1] was 10.6 µM (inactive); in assay [10], > 69.5 µM (inactive).

Regarding `C(=Cc1cnc2ccccc2n1)c1ccc2c(c1)OCO2`, the AC50 was 24.6 µM (active) in assay [4]; 4.37 µM (active) in assay [11]; 0.173 µM (active) in the assay on HEK293; 2.05 µM (active) in assay [12]; 42.1 µM (active) in [13]; 0.263 µM (active) in assay [5]. Further, the concentration at half-maximal activity (AC50) in assay [14] was 13.5 µM (active); in assay [6], 17 µM (active); in assay [7], 0.25 µM (active); in assay [15], 6.27 µM (active); on Paired box protein Pax-8 it was 2.92 µM (active); in assay [8] it was 10.7 µM (active). For the same molecule, the AC50 in assay [17] was 3.91 µM (active). Also, the EC50 in [16] is > 53 µM (inactive).

In the case of `CC(C)(C)[C@@H]1C=C(C(=O)NCc2nc3ccccc3[nH]2)O[C@H](OCc2ccc(CO)cc2)C1`, the IC50 in assay [18] is > 83.3 µM (inactive).

As to `N=C(N)NCCC[C@@H]1NC(=O)c2cc([N+](=O)[O-])cc(F)c2NCCCC[C@@H](C(N)=O)NC(=O)CNC1=O`, in [19], the half-maximal activity concentration (AC50) was 14.8 µM (active).

For the molecule `Cc1ccc(C(=S)NCS(=O)(=O)c2ccc(C)cc2)cc1`, the IC50 in assay [10] is 14.5 µM (inactive).

On to `CCNC(=O)C[C@H]1CC[C@@H]2[C@@H](COc3ccc(NC(=O)c4cccc(C(F)(F)F)c4)cc3C(=O)N2C)O1`, for which the AC50 in [20] is 0.469 µM (active).

As to `CCCCn1c(SCc2nc(N)nc(Nc3ccccc3C)n2)nc2ccccc2c1=O`, the IC50 in assay [1] and in [10] was > 69.5 µM (inactive) in each case.

Turning to `CN1C(=O)c2cc(NC(=O)c3ccc(C(F)(F)F)cc3)ccc2OC[C@@H]2O[C@@H](CC(=O)NCc3ccc4c(c3)OCO4)CC[C@@H]21`, the results for the AC50 in [21] and in assay [22] were 23.8 µM (active) and 13.8 µM (active), respectively.

For `O=C(c1ccco1)N1CCN(C2CC(=O)N(c3ccccc3)C2=O)CC1` (stereo unspecified), the AC50 in assay [20] was 5.02 µM (active).

Consider `COc1ccc(C)c2sc(N(CCN(C)C)C(=O)c3ccc4ccccc4c3)nc12`, for which the concentration at half-maximal activity (AC50) is 14.1 µM (active) in [19] and 79.4 µM (active) in assay [23].

Regarding `Nc1c(C(=O)N2CCOCC2)sc2nc3c(cc12)CCCC3`, the AC50 in assay [4] was > 52 µM (inactive); in assay [5], 2.38 µM (active); in [6], > 52 µM (inactive); in assay [7] it was 3.2 µM (active); in [8], > 52 µM (inactive).

The record behind these values is ChEMBL document CHEMBL1201862, “PubChem BioAssay data set” (2004).
